# Experimental data: ChEMBL document CHEMBL1124217, “2,4-Diamino-5-benzylpyrimidines and analogues as antibacterial agents. 9. Lipophilic trimethoprim analogues as antigonococcal agents” (J Med Chem, 1988)
# What was measured:
# Rattus norvegicus [1] = assay: Conc in kidney of male rat 3h after administration of dose; assay type: functional, organism-based
# Rattus norvegicus [2] = assay: Conc in serum of male rat 6 hr after administration of dose; assay type: functional, organism-based
# Rattus norvegicus [3] = assay: Conc in stomach of male rat 0.25 hr after administration of dose; assay type: functional, organism-based
# Rattus norvegicus [4] = assay: Conc in intestine of male rat 0.25 hr after administration of dose; assay type: functional, organism-based
# Rattus norvegicus [5] = assay: Conc in muscle of male rat 1.5h after administration of dose; assay type: functional, organism-based; conditions: Muscle tissue
# Rattus norvegicus [6] = assay: Conc in kidney of male rat 24 hr after administration of dose; assay type: functional, organism-based
# Rattus norvegicus [7] = assay: Conc in testes of male rat 6 hr after administration of dose; assay type: functional, organism-based; conditions: Testis
# Rattus norvegicus [8] = assay: Conc in stomach of male rat 0.75h after administration of dose; assay type: functional, organism-based
# Rattus norvegicus [9] = assay: Conc in brain of male rat 1 hr after administration of dose; assay type: functional, organism-based
# Rattus norvegicus [10] = assay: Conc in lung of male rat 24 hr after administration of dose; assay type: functional, organism-based
# Rattus norvegicus [11] = assay: Conc in lung of male rat 4 hr after administration of dose; assay type: functional, organism-based
# Rattus norvegicus [12] = assay: Conc in ovary of female rat 6 hr after administration of dose; assay type: functional, organism-based; conditions: Female gonad
# Rattus norvegicus [13] = assay: Conc in serum of male rat 0.75h after administration of dose; assay type: functional, organism-based
# Rattus norvegicus [14] = assay: Conc in ovary of female rat 0.75h after administration of dose; assay type: functional, organism-based; conditions: Female gonad
# Rattus norvegicus [15] = assay: Conc in lung of male rat 2 hr after administration of dose; assay type: functional, organism-based
# Rattus norvegicus [16] = assay: Conc in stomach of male rat 3h after administration of dose; assay type: functional, organism-based
# Rattus norvegicus [17] = assay: Conc in lung of male rat 10h after administration of dose; assay type: functional, organism-based
# Rattus norvegicus [18] = assay: Conc in testes of male rat 24 hr after administration of dose; assay type: functional, organism-based; conditions: Testis
# Rattus norvegicus [19] = assay: Conc in brain of male rat 2 hr after administration of dose; assay type: functional, organism-based
# Rattus norvegicus [20] = assay: Conc in intestine of male rat 10h after administration of dose; assay type: functional, organism-based
# Rattus norvegicus [21] = assay: Conc in intestine of male rat 6 hr after administration of dose; assay type: functional, organism-based
# Klebsiella aerogenes = assay: Inhibition of growth of Enterobacter aerogenes (2200/186) measured as MIC(compound/MIC Trimethoprim; assay type: functional
# Rattus norvegicus [22] = assay: Conc in brain of male rat 24 hr after administration of dose; assay type: functional, organism-based
# Rattus norvegicus [23] = assay: Conc in kidney of male rat 1 hr after administration of dose; assay type: functional, organism-based
# Rattus norvegicus [24] = assay: Conc in ovary of female rat 1 hr after administration of dose; assay type: functional, organism-based; conditions: Female gonad
# Rattus norvegicus [25] = assay: Conc in liver of male rat 6 hr after administration of dose; assay type: functional, organism-based
# Rattus norvegicus [26] = assay: Conc in intestine of male rat 1.5h after administration of dose; assay type: functional, organism-based
# Rattus norvegicus [27] = assay: Conc in serum of female rat 1 hr after administration of dose; assay type: functional, organism-based
# Rattus norvegicus [28] = assay: Conc in testes of male rat 0.50 hr after administration of dose; assay type: functional, organism-based; conditions: Testis
# Rattus norvegicus [29] = assay: Conc in stomach of male rat 24 hr after administration of dose; assay type: functional, organism-based
# Rattus norvegicus [30] = assay: Conc in lung of male rat 0.75h after administration of dose; assay type: functional, organism-based
# Rattus norvegicus [31] = assay: Conc in ovary of female rat 2 hr after administration of dose; assay type: functional, organism-based; conditions: Female gonad
# Rattus norvegicus [32] = assay: Conc in testes of male 1 hr rat after administration of dose; assay type: functional, organism-based; conditions: Testis
# Rattus norvegicus [33] = assay: Conc in stomach of male rat 2 hr after administration of dose; assay type: functional, organism-based
# Rattus norvegicus [34] = assay: Conc in serum of female rat 0.50 hr after administration of dose; assay type: functional, organism-based
# Rattus norvegicus [35] = assay: Conc in lung of male rat 1.5h after administration of dose; assay type: functional, organism-based
# Staphylococcus aureus = assay: Inhibition of growth of Staphylococcus aureus (CN491) measured as MIC compound/MIC Trimethoprim; assay type: functional
structure (smiles),measurement,setting,value
CC(C)c1cc(Cc2cnc(N)nc2N)cc(C(C)C)c1O,Concentration,Rattus norvegicus [1],4.11 µg/g
same,Concentration,Rattus norvegicus [2],0.27 µg/g
same,Concentration,Rattus norvegicus [3],387 µg/g
same,Concentration,Rattus norvegicus [4],158 µg/g
same,Concentration,Rattus norvegicus [5],1.84 µg/g
same,Concentration,Rattus norvegicus [6],0.5 µg/g
same,Concentration,Rattus norvegicus [7],0.41 µg/g
same,Concentration,Rattus norvegicus [8],319 µg/g
same,Concentration,Rattus norvegicus [9],0.91 µg/g
same,Concentration,Rattus norvegicus [10],0.1 µg/g
same,Concentration,Rattus norvegicus [11],2.3 µg/g
same,Concentration,Rattus norvegicus [12],0.71 µg/g
same,Concentration,Rattus norvegicus [13],1.13 µg/g
same,Concentration,Rattus norvegicus [14],4.48 µg/g
same,Concentration,Rattus norvegicus [15],4.98 µg/g
same,Concentration,Rattus norvegicus [16],8.92 µg/g
same,Concentration,Rattus norvegicus [17],0.4 µg/g
same,Concentration,Rattus norvegicus [18],0.15 µg/g
same,Concentration,Rattus norvegicus [19],0.43 µg/g
same,Concentration,Rattus norvegicus [20],2.29 µg/g
same,Concentration,Rattus norvegicus [21],4.13 µg/g
same,MIC ratio,Klebsiella aerogenes,100
same,Concentration,Rattus norvegicus [22],0.004 µg/g
same,Concentration,Rattus norvegicus [23],7.78 µg/g
same,Concentration,Rattus norvegicus [24],3.33 µg/g
same,Concentration,Rattus norvegicus [25],5.14 µg/g
same,Concentration,Rattus norvegicus [26],14.9 µg/g
same,Concentration,Rattus norvegicus [27],1.09 µg/g
same,Concentration,Rattus norvegicus [28],1.07 µg/g
same,Concentration,Rattus norvegicus [29],1.49 µg/g
same,Concentration,Rattus norvegicus [30],11.3 µg/g
same,Concentration,Rattus norvegicus [31],1.93 µg/g
same,Concentration,Rattus norvegicus [32],1.32 µg/g
same,Concentration,Rattus norvegicus [33],46.1 µg/g
same,Concentration,Rattus norvegicus [34],0.9 µg/g
same,Concentration,Rattus norvegicus [35],7.17 µg/g
same,MIC ratio,Staphylococcus aureus,10
